In general, IC50 refers to the concentration that gives 50% inhibition. Low values mean higher potency, high ones lower potency. A word on the melting point: it is the temperature of the solid-liquid transition.

Among the data in patent US7439242B2, “PPARγ modulators” (Amgen Inc., priority 1998, dated 2008) are IC50 and melting point values, retold here.

The first data set has as its target T1, PPARγ (Homo sapiens, UniProt P37231).
T1 construct: made in house
T1 sequence (P37231 1-505): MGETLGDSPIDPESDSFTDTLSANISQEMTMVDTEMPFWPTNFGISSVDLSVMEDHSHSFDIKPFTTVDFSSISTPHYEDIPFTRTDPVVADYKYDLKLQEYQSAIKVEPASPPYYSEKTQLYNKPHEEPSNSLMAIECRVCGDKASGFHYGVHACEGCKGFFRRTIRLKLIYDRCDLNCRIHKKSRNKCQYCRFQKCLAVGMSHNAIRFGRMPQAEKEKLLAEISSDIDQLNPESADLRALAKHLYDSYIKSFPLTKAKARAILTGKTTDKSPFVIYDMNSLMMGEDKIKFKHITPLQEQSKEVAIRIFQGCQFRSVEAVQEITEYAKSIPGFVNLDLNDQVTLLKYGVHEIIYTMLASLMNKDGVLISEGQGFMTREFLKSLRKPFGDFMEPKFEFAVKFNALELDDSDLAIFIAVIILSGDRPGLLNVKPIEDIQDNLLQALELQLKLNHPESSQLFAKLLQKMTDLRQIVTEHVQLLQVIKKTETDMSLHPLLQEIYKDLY
The data set is described as follows: PPARγ ligand binding assay utilizing [3H]-BRL 49653 as the radioligand. The settings on record: concentration of test compound required to reduce by 50% the specific binding of [3H]-BRL 49653; methods similar to Lehmann et al. From the text: The compounds of the present invention can be evaluated for modulation of the PPARγ receptor using assays such as those described in Jiang, et al., Nature 391:82-86 (1998), Ricote, et al., Nature 391:79-82 (1998) and Lehmann, et al., J. Biol. Chem. 270(12): 12953-12956 (1995). Alternatively, the compounds can be evaluated for their ability to displace radiolabeled BRL 49653 from a PPARγ-GST fusion protein as follows:
PPARγ-GST fusion protein (prepared according to standard procedures), [^3H]—BRL 49653 having 50 Ci/mmol specific activity, Polyfiltronics Unifilter 350 filtration plate and glutathione-Sepharose® beads (from Pharmacia: washed twice with 10×binding buffer in which BSA and DTT can be left out).
Binding buffer (10 mM Tris-HCl, pH 8.0, 50 mM KCl, 10 mM DTT, 0.02% BSA and 0.01% NP-40) is added in 80 microliter amounts to the wells of the filtration plate. The test compound is then added in 10 microliters of DMSO. The PPARγ-GST fusion protein and radiolabeled BRL compound are premixed in binding buffer containing 10 mM DTT and added in 10 microliter amounts to the wells of the plate to provide final concentrations of 1 μg/well of PPARγ-GST fusion protein and 10 nM [^3H]—BRL 49653 compound. The plate is incubated for 15 minutes. Glutathione-agarose bead is added in 50 μL of binding buffer, and the plate is vigorously shaken for one hour. The plate is washed four times with 200 μL/well of binding buffer (without BSA and DTT). The bottom of the plate is sealed and 200 μL/well of scintillation cocktail is added. The top of the plate is then sealed and the radioactivity is determined.
IC50 values are defined as the concentration of test compounds required to reduce by 50% the specific binding of [^3H]-BRL 49653.
As to `CCOC(=O)c1cc(NS(=O)(=O)c2cc(Br)ccc2OC)ccc1Oc1cncc(Cl)c1` [Example 3, ethyl 5-(2-methoxy-5-bromobenzenesulfonamido)-2-(3-chloro-5-pyridyloxy)benzoate], the half-inhibitory concentration (IC50) is 150 nM.
In the case of `CCOC(=O)c1cc(NS(=O)(=O)c2ccc(OC)c(OC)c2)ccc1Oc1cncc(Cl)c1` [Example 4, ethyl 5-(3,4-dimethoxy-benzenesulfonamido)-2-(3-chloro-5-pyridyloxy)benzoate], the IC50 is 300 nM.
As for `CCOC(=O)c1cc(NS(=O)(=O)c2cc([N+](=O)[O-])ccc2C)ccc1Oc1cncc(Cl)c1` [Example 5, ethyl 5-(2-methyl-5-nitrobenzenesulfonamido)-2-(3-chloro-5-pyridyloxy)benzoate], the IC50 worked out at 800 nM.
For the molecule `CCOC(=O)c1cc(NS(=O)(=O)c2c(Cl)cccc2Cl)ccc1Oc1cncc(Cl)c1` [Example 6, ethyl 5-(2,6-dichlorobenzenesulfonamido)-2-(3-chloro-5-pyridyloxy)benzoate], the IC50 was found to be 6000 nM.
Turning to `CCOC(=O)c1cc(NS(=O)(=O)c2c(C)cc(Cl)cc2Cl)ccc1Oc1cncc(Cl)c1` [Example 7, ethyl 5-(2,4-dichloro6-methylbenzenesulfonamido)-2-(3-chloro5-pyridyloxy)benzoate], the IC50 worked out at 800 nM.

Tested on in another data set: not given
Assay: not given
Conditions: not given
Molecule `CCOC(=O)c1cc(NS(=O)(=O)c2ccc(C(F)(F)F)cn2)ccc1Oc1cncc(Cl)c1` [Example 21, ethyl 5-(5-trifluoromethyl-2-pyridinesulfonamido)-2-(3-chloro-5-pyridyloxy)benzoate] showed a melting point of 133 to 135 °C.
On the same count and under the same terms, with `CCOC(=O)c1cc(NS(=O)(=O)c2ccc(Cl)nc2)ccc1Oc1cncc(Cl)c1` [Example 24, ethyl 5-(6-chloro-3-pyridinesulfonamido)-2-(3-chloro-5-pyridyloxy)benzoate] the figure was 166 to 168 °C; with `CCOC(=O)c1cc(NS(=O)(=O)c2cccnc2)ccc1Oc1cncc(Cl)c1` [Example 25, ethyl 5-(3-pyridinesulfonamido)-2-(3-chloro-5-pyridyloxy)benzoate], 120 to 122 °C; with `O=S(=O)(Nc1ccccc1Oc1cncc(Cl)c1)c1ccc(Cl)cc1Cl` [Example 32, 1-(3-chloro-5-pyridyloxy)-2-(2,4-dichlorobenzenesulfonamido)benzene], 168 to 170 °C.
Turning to `CCOC(=O)c1cc(S(=O)(=O)Nc2ccc(Cl)cc2Cl)ccc1Oc1cncc(Cl)c1` [Example 40, ethyl 2-(3-chloro-5-pyridyloxy)-5-(2,4-dichlorophenylaminosulfonyl)benzoic acid], the melting point lay within 153 to 155 °C.
Consider `CCOC(=O)c1cc(NC(=O)c2ccc(Cl)cc2Cl)ccc1Oc1cncc(Cl)c1` [Example 41, ethyl 5-(2,4-dichlorobenzamido)-2-(3-chloro-5-pyridyloxy)benzoate], for which the melting point lay within 125 to 127 °C.
Regarding `O=S(=O)(Nc1cc(C(F)(F)F)ccc1Oc1cncc(Cl)c1)c1ccc(Cl)cc1Cl` [Example 43, 4-(3-chloro-5-pyridyloxy)-3-(2,4-dichlorobenzenesulfonamido)benzotrifluoride], the melting point was 150 to 151.5 °C.
